Assay [1] concerns the target T1, recombinant human Meningioma Expressed Antigen 5 (MGEA5), also referred to as O-GlcNAcase (OGA) (Homo sapiens, UniProt O60502).
T1 construct: Full length OGA enzyme was purchased at OnGene (cat #TP322411); purchased OnGene (so in the source)
T1 sequence (O60502 1-916): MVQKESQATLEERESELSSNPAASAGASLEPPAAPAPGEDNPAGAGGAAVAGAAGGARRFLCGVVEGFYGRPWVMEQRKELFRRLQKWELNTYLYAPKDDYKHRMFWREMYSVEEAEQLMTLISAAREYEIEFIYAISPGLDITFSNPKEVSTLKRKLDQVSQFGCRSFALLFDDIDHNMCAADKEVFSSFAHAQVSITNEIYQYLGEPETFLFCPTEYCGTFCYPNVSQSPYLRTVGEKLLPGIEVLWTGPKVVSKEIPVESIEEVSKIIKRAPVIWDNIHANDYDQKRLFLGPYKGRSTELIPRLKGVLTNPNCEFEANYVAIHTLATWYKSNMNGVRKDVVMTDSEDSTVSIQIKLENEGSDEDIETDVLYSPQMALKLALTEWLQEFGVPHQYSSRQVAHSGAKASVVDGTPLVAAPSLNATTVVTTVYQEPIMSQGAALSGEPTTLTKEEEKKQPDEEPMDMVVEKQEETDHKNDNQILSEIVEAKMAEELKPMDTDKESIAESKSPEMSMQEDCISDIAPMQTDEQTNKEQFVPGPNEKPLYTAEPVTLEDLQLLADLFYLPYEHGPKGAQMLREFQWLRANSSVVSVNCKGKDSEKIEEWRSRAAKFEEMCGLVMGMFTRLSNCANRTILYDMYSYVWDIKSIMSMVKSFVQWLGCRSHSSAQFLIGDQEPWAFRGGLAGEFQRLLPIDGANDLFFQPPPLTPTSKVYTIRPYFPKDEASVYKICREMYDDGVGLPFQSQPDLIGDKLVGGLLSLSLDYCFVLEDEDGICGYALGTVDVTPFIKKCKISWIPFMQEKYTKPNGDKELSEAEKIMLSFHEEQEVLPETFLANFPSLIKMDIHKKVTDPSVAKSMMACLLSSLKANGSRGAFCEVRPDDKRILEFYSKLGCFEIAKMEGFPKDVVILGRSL
Briefly: OGA biochemical assay: inhibition of hydrolysis of fluorescein mono-ß-D-N-Acetyl-Glucosamine (FM-GlcNAc), fluorescence readout. To be noted: FM-GlcNAc substrate; for Emax: read-out: Enzymatic Emax (%); for IC50: read-out: Enzymatic hOGA, pIC50 (converted). The gist of the method:
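Full-length recombinant human OGA (2 nM) was pre-incubated with compound for 60 min, then reacted with 100 uM FM-GlcNAc for 6 h at room temperature in 200 mM citrate/phosphate pH 7.2 with 0.005% Tween-20. Reactions were stopped with pH 11.0 carbonate and fluorescein read at 485/538 nm. IC50 and Hill coefficient came from curve fitting.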

Assay [2] deals with OGA in HEK293 cells inducible for P301L mutant human Tau (isoform 2N4R). Nature of the assay: OGA cellular assay: immunocytochemical detection of O-GlcNAcylated proteins (CTD110.6 antibody). Type of assay: cell-based. The conditions noted are these: Homo sapiens, HEK293, 6 h, 6 hours incubation; for Emax: maximum = Thiamet G 200 uM; for EC50: read-out: Cellular hOGA, pEC50 (converted). As to the method:
HEK293 cells inducible for P301L mutant human Tau (isoform 2N4R) were established at Janssen. Thiamet-G was used for both plate validation (high control) and as reference compound (reference EC50 assay validation). OGA inhibition is evaluated through the immunocytochemical (ICC) detection of O-GlcNAcylated proteins by the use of a monoclonal antibody (CTD110.6; Cell Signaling, #9875) detecting 0-GlcNAcylated residues as previously described (Dorfmueller et al. 2010 Chemistry & biology, 17:1250). Inhibition of OGA will result in an increase of O-GlcNAcylated protein levels resulting in an increased signal in the experiment. Cell nuclei are stained with Hoechst to give a cell culture quality control and a rough estimate of immediate compounds toxicity, if any. ICC pictures are imaged with a Perkin Elmer Opera Phenix plate microscope and quantified with the provided software Perkin Elmer Harmony 4.1.
Cells were propagated in DMEM high Glucose (Sigma, #D5796) following standard procedures. 2 days before the cell assay cells are split, counted and seeded in Poly-D-Lysine (PDL) coated 96-wells (Greiner, #655946) plate at a cell density of 12,000 cells per cm^2 (4,000 cells per well) in 100p of Assay Medium (Low Glucose medium is used to reduce basal levels of GlcNAcylation) (Park et al. 2014 The Journal of biological chemistry 289:13519). At the day of compound test medium from assay plates was removed and replenished with 90 µl of fresh Assay Medium. 10p of compounds at a 10 fold final concentration were added to the wells. Plates were centrifuged shortly before incubation in the cell incubator for 6 hours. DMSO concentration was set to 0.2%. Medium is discarded by applying vacuum. For staining of cells medium was removed and cells washed once with 100 μl D-PBS (Sigma, #D8537). From next step onwards unless other stated assay volume was always 50p and incubation was performed without agitation and at room temperature. Cells were fixed in 50 μl of a 4% paraformaldehyde (PFA, Alpha aesar, #043368) PBS solution for 15 minutes at room temperature. […] Before analysis samples were washed 2 times manually for 5 minutes in ICC base buffer.
Imaging is performed using Perkin Elmer Phenix Opera using a water 20× objective and recording 9 fields per well. Intensity readout at 488 nm is used as a measure of O-GlcNAcylation level of total proteins in wells. To assess potential toxicity of compounds nuclei were counted using the Hoechst staining. IC50-values are calculated using parametric non-linear regression model fitting. As a maximum inhibition Thiamet G at a 200 uM concentration is present on each plate. In addition, a concentration response of Thiamet G is calculated on each plate.

Data on 27 compounds can be found in US20210277003A1, “OGA INHIBITOR COMPOUNDS” (Janssen Pharmaceutica NV, priority 2018, published 2021).

With `Cc1ccnc(OC(F)F)c1Nc1nccc2c1ccn2CC1CCO1` (stereo not drawn) [Compound 119], in assay [1], the “Enzymatic hOGA; pIC50” value is 8 and the Emax (as a rule, the size of the effect at its maximum, as opposed to the concentration needed) worked out at 105%. Further, in assay [2], the Emax was found to be 80.3% and the EC50 is 102 nM.

Turning to `CCC(C)Cn1ccc2c(Nc3c(Cl)cccc3Cl)nccc21.Cl` (stereo not drawn) [Compound 9], in assay [1], the “Enzymatic hOGA; pIC50” value was determined as 8.42 and the Emax was found to be 105%. For the same compound, in assay [2], the Emax came to 85% and the EC50 was 30.2 nM.

Take `CCCCn1c(F)cc2c(Nc3c(C)cncc3C)nccc21` [Compound 31]: in assay [1], the Emax was determined as 99% and the IC50 is 302 nM. Also, in assay [2], the Emax is 27% and the EC50 is above 1000 nM.

Turning to `CCCCn1ccc2c(Nc3c(C)ccnc3C)nccc21` [Compound 6], in assay [1], the “Enzymatic hOGA; pIC50” value worked out at 8.16 and the Emax was found to be 102%. In assay [2], the Emax worked out at 89% and the EC50 is 50.1 nM.

Turning to `CCCCn1ccc2c(Nc3c(C)ccc4c3nc(C)n4C)nccc21` [Compound 206], in assay [1], the Emax was found to be 101% and the IC50 is 51.3 nM. Moreover, in assay [2], the Emax came out at 63.7% and the EC50 was 661 nM.

Take `CCCCn1ccc2c(Nc3c(Cl)cc4c(c3C)OCCO4)nccc21` [Compound 76]: in assay [1], the Emax amounted to 101% and the IC50 is 2.95 nM. Also, in assay [2], the Emax worked out at 100% and the EC50 is 23.4 nM.

Take `Cc1cc(F)cc(C(C)C)c1Nc1nccc2c1ccn2CC1CC(F)(F)C1` [Compound 171]: in assay [1], the Emax worked out at 103% and the IC50 is 6.03 nM. Also, in assay [2], the Emax amounted to 73.8% and the EC50 was 38.9 nM.

Take `Cn1ccc(-n2ccc3c(Nc4c(Cl)cc(F)cc4Cl)nccc32)n1` [Compound 184]: in assay [1], the Emax was determined as 101% and the IC50 is 79.4 nM. Besides, in assay [2], the Emax came to 46.5% and the EC50 is 912 nM.

With `Cc1cc(OC(F)(F)F)cc(C)c1Nc1nccc2c1ccn2CC(F)(F)C(C)C` [Compound 187], in assay [1], the Emax was determined as 101% and the IC50 is 1.78 nM. In addition, in assay [2], the Emax worked out at 96.4% and the EC50 was 8.71 nM.

For `Cc1cc(C(F)(F)F)cc(Cl)c1Nc1nccc2c1ccn2CC(C)(F)F` [Compound 128], in assay [1], the “Enzymatic hOGA; pIC50” value is on record as 8.58 and the maximal effect (Emax) came out at 101%. In assay [2], the Emax was found to be 90.3% and the EC50 was 12.9 nM.

With `CCCCn1ccc2c(Nc3c(C)ccc(C(=O)N4CCCC4)c3C)nccc21` [Compound 55], in assay [1], the Emax stood at 103% and the IC50 is 1.7 nM. Further, in assay [2], the Emax amounted to 104% and the EC50 was 22.4 nM.

With `CCCCn1ccc2c(Nc3c(C)cncc3C(C)C)nccc21` [Compound 63], in assay [1], the Emax was 103% and the IC50 is 2.88 nM. Besides, in assay [2], the Emax was 93% and the EC50 is 12.3 nM.

`Cc1ccnc(C)c1Nc1nccc2c1ccn2CC1CC(F)(F)C1` [Compound 92]: in assay [1], the “Enzymatic hOGA; pIC50” value is listed as 7.38 and the Emax came to 103%. In assay [2], the Emax was 75% and the EC50 was 151 nM.

In the case of `Cc1cncc(C)c1Nc1nccc2c1ccn2CC1CC1(F)F` (stereo not drawn) [Compound 1], in assay [1], the maximum response (Emax) is 102% and the IC50 is 151 nM. Further, in assay [2], the Emax amounted to 56% and the EC50 is 708 nM.

Consider `Fc1cc(Cl)c(Nc2nccc3c2ccn3CC2CCCO2)c(Cl)c1` (stereo not drawn) [Compound 136], for which, in assay [1], the “Enzymatic hOGA; pIC50” value is 7.64 and the Emax amounted to 101%. Further, in assay [2], the Emax turned out to be 74.9% and the EC50 was 240 nM.

`Cc1ccnc(C(C)C)c1Nc1nccc2c1ccn2CC1CCO1` (stereo not drawn) [Compound 160]: in assay [1], the “Enzymatic hOGA; pIC50” value turned out to be 8.67 and the Emax was determined as 103%. Also, in assay [2], the Emax was 96% and the EC50 was 8.13 nM.

For the compound `Cc1cc(OC(F)F)nc(C)c1Nc1nccc2c1ccn2CC(F)(F)C(C)C` [Compound 188], in assay [1], the Emax was 100% and the IC50 is 1.62 nM. In addition, in assay [2], the Emax is 89.1% and the EC50 was around 4.37 nM.

Turning to `Cc1cncc(C)c1Nc1nccc2c1ccn2CCC1CC1` [Compound 49], in assay [1], the Emax is 103% and the IC50 was 11.7 nM. In addition, in assay [2], the Emax amounted to 63% and the EC50 was 79.4 nM.

On to `Cc1cc(-c2cnn(C)c2)cc(C)c1Nc1nccc2c1ccn2CC(F)(F)C(C)C` [Compound 178], for which, in assay [1], the Emax came out at 101% and the IC50 is 1.12 nM. In assay [2], the Emax is 103% and the EC50 was 2.95 nM.

Regarding `CCCCn1ccc2c(Nc3c(Cl)cccc3Cl)nccc21` [Compound 71], in assay [1], the Emax was 101% and the IC50 is 2.24 nM. Moreover, in assay [2], the Emax worked out at 78% and the EC50 was 47.9 nM.

Consider `CCC(F)Cn1ccc2c(Nc3c(C)ccnc3C)nccc21` (stereo not drawn) [Compound 78], for which, in assay [1], the Emax stood at 103% and the IC50 is 3.24 nM. Also, in assay [2], the Emax is 96% and the EC50 is 7.94 nM.

For `CCCCn1ccc2c(Nc3c(C)cc4c(ncn4C)c3C)nccc21` [Compound 77], in assay [1], the Emax came to 99% and the IC50 is 4.79 nM. Further, in assay [2], the Emax was 83% and the EC50 is 7.41 nM.

As to `Cc1ccnc(C)c1Nc1nccc2c1ccn2CCC(F)F` [Compound 96], in assay [1], the “Enzymatic hOGA; pIC50” value was 7.1 and the Emax was determined as 102%. Further, in assay [2], the Emax amounted to 60% and the EC50 is 513 nM.

For the compound `CCCCn1ccc2c(Nc3c(C)ccc(C(=O)N4CCOCC4)c3C)nccc21` [Compound 13], in assay [1], the “Enzymatic hOGA; pIC50” value was 8.49 and the Emax turned out to be 105%. Moreover, in assay [2], the Emax was determined as 87% and the EC50 was 28.2 nM.

On to `CCCCn1ccc2c(Nc3c(F)cncc3C(C)C)nccc21` [Compound 46], for which, in assay [1], the Emax stood at 99% and the IC50 is 17.8 nM. Besides, in assay [2], the Emax turned out to be 67% and the EC50 is 251 nM.

With `CCCC(C)n1ccc2c(Nc3c(Cl)cccc3Cl)nccc21` (stereo not drawn) [Compound 39], in assay [1], the Emax amounted to 102% and the IC50 was 53.7 nM. In addition, in assay [2], the maximal effect (Emax) came to 56% and the EC50 was 692 nM.

As to `Cc1cc(C(F)(F)F)cc(C(C)C)c1Nc1nccc2c1ccn2CC1CCO1` (stereo not drawn) [Compound 161], in assay [1], the “Enzymatic hOGA; pIC50” value is 8.58 and the Emax is 104%. Further, in assay [2], the Emax stood at 88.8% and the EC50 is 6.76 nM.
